Reference: US20250281424A1 (New York Blood Center, Inc, priority 2020, published 2025)

Target: T1, human PF4 (Homo sapiens, UniProt P02776)
T1 construct: PF4 is a 70 amino acid, lysine-rich 7.8 kDa platelet-specific protein; made in house; host or cells: Escherichia coli BL21DE3 pLysS (pT7-7) and/or Drosophila S2 cells
T1 sequence (P02776 32-101): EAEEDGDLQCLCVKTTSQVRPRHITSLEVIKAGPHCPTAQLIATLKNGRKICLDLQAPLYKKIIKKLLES
Experiment: Inhibition of PF4 tetramer formation (BS3 cross-linking, SDS-PAGE)
Format: biochemical
Details: for inhibition at 1 µM / inhibition at 3 µM / inhibition at 5 µM / inhibition at 10 µM: read-out: % inhibition of PF4 tetramer formation at single concentration of inhibitor; for IC50: read-out: IC50 of PF4 tetramer formation inhibition; for inhibition at 5 µM: 5 μM inhibitor; for inhibition at 10 µM: 10 μM inhibitor (column A)
Method in brief: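 Recombinant human wild-type PF4 (E. coli-expressed, heparin-purified), 10 μg/ml in PBS, incubated with compound 15 min at 37° C or 60 min at room temperature, then cross-linked with 0.2 mM BS3 for 30 min at room temperature. Reducing 12% SDS-PAGE; bands quantified as % tetramer, trimer, dimer, monomer versus compound-free control.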

| inhibition at 1 µM (1 μM inhibitor) [%] | inhibition at 3 µM (3 μM inhibitor (column A)) [%] | IC50 [µM] | inhibition at 5 µM [%] | inhibition at 10 µM [%] | SMILES | further results |
| --- | --- | --- | --- | --- | --- | --- |
| 18 | 42 | – | – | – | O=C(CCC(=O)C1C(=O)c2ccc(S(=O)(=O)c3ccc4c(c3)C(=O)C(C(=O)CCC(=O)c3cccc(Cl)c3Cl)C4=O)cc2C1=O)c1cccc(Cl)c1Cl (stereo not drawn) [Example 255, 2-[4-(2,3-dichlorophenyl)-4-oxobutanoyl]-5-({2-[4-(2,3-dichlorophenyl)-4-oxobutanoyl]-1,3-dioxo-2,3-dihydro-1H-inden-5-yl}sulfonyl)-2,3-dihydro-1H-indene-1,3-dione] | % inhibition of PF4 tetramer formation at single concentration of inhibitor (1 μM inhibitor, 1 µM): 9%; % inhibition of PF4 tetramer formation at single concentration of inhibitor (3 μM inhibitor (column A), 3 µM): 51% |
| 6 | 22 | – | – | – | CC(=O)C1C(=O)c2ccc(Oc3ccc4c(n3)C(=O)C(C(C)=O)C4=O)cc2C1=O (stereo not drawn) [Example 330, 6-acetyl-2-[(2-acetyl-1,3-dioxo-2,3-dihydro-1H-inden-5-yl)oxy]-5H,6H,7H-cyclopenta[b]pyridine-5,7-dione] | – |
| 43 | 68 | 0.66 | – | – | CC(C)OCC(=O)C1C(=O)c2ccc(S(=O)(=O)c3ccc4c(c3)C(=O)C(C(=O)COC(C)C)C4=O)cc2C1=O (stereo not drawn) [Example 379, 5-({1,3-dioxo-2-[2-(propan-2-yloxy)acetyl]-2,3-dihydro-1H-inden-5-yl}sulfonyl)-2-[2-(propan-2-yloxy)acetyl]-2,3-dihydro-1H-indene-1,3-dione] | – |
| – | – | 2.9 | 78 | 100 | CCCCc1ccc(NC(=O)C2C(=O)c3ccc(S(=O)(=O)c4ccc5c(c4)C(=O)C(C(=O)Nc4ccc(CCCC)cc4)C5=O)cc3C2=O)cc1 (stereo not drawn) [Example 102] | – |
| – | – | – | 33 | 62 | COc1ccc(NC(=O)C2C(=O)c3ccc(S(=O)(=O)c4ccc5c(c4)C(=O)C(C(=O)Nc4ccc(OC)cc4OC)C5=O)cc3C2=O)c(OC)c1 (stereo not drawn) [Example 94, N-(2,4-dimethoxyphenyl)-5-({2-[(2,4-dimethoxyphenyl)carbamoyl]-1,3-dioxo-2,3-dihydro-1H-inden-5-yl}sulfonyl)-1,3-dioxo-2,3-dihydro-1H-indene-2-carboxamide] | – |
| – | – | 1.4 | 97 | 100 | O=C1c2ccc(S(=O)(=O)c3ccc4c(c3)C(=O)C(C(=O)[C@@H]3C[C@H]3C(=O)O)C4=O)cc2C(=O)C1C(=O)[C@@H]1C[C@H]1C(=O)O (stereo in doubt) [Example 223, (1R,2R)-2-[5-({2-[(1R,2R)-2-carboxycyclopropanecarbonyl]-1,3-dioxo-2,3-dihydro-1H-inden-5-yl}sulfonyl)-1,3-dioxo-2,3-dihydro-1H-indene-2-carbonyl]cyclopropane-1-carboxylic acid] | – |
| – | – | 1.4 | 94 | 97 | O=C(c1ccc2c(c1)C(=O)C(C(=O)[C@@H]1C[C@H]1C(=O)O)C2=O)c1ccc2c(c1)C(=O)C(C(=O)[C@@H]1C[C@H]1C(=O)O)C2=O (stereo in doubt) [Example 222, (1R,2R)-2-(5-{2-[(1R,2R)-2-carboxycyclopropanecarbonyl]-1,3-dioxo-2,3-dihydro-1H-indene-5-carbonyl}-1,3-dioxo-2,3-dihydro-1H-indene-2-carbonyl)cyclopropane-1-carboxylic acid] | – |
| 1 | 45 | – | – | – | O=C(NC1CCOCC1)C1C(=O)c2ccc(S(=O)(=O)c3ccc4c(c3)C(=O)C(C(=O)NC3CCOCC3)C4=O)cc2C1=O (stereo not drawn) [Example 368, N-(oxan-4-yl)-5-({2-[(oxan-4-yl)carbamoyl]-1,3-dioxo-2,3-dihydro-1H-inden-5-yl}sulfonyl)-1,3-dioxo-2,3-dihydro-1H-indene-2-carboxamide] | – |
| 26 | 42 | 3 | – | – | N#CC1C(=O)c2ccc(C(=O)c3ccc4c(c3)C(=O)C(C#N)C4=O)cc2C1=O (stereo not drawn) [Example 250, 5-(2-cyano-1,3-dioxo-2,3-dihydro-1H-indene-5-carbonyl)-1,3-dioxo-2,3-dihydro-1H-indene-2-carbonitrile] | – |
| 27 | 47 | – | – | – | O=C(O)CCC(=O)C1C(=O)c2ccc(Oc3ccc4c(c3)C(=O)C(C(=O)CCC(=O)O)C4=O)cc2C1=O (stereo not drawn) [Example 245, 4-(5-{[2-(3-carboxypropanoyl)-1,3-dioxo-2,3-dihydro-1H-inden-5-yl]oxy}-1,3-dioxo-2,3-dihydro-1H-inden-2-yl)-4-oxobutanoic acid] | – |

| SMILES | inhibition at 1 µM (1 μM inhibitor) [%] | inhibition at 3 µM (3 μM inhibitor (column A)) [%] | IC50 [µM] | inhibition at 5 µM [%] | inhibition at 10 µM [%] | further results |
| --- | --- | --- | --- | --- | --- | --- |
| O=C(Cc1cccc(F)c1F)C1C(=O)c2ccc(Oc3ccc4c(c3)C(=O)C(C(=O)Cc3cccc(F)c3F)C4=O)cc2C1=O (stereo not drawn) [Example 260, 2-[2-(2,3-difluorophenyl)acetyl]-5-({2-[2-(2,3-difluorophenyl)acetyl]-1,3-dioxo-2,3-dihydro-1H-inden-5-yl}oxy)-2,3-dihydro-1H-indene-1,3-dione] | 11 | 46 | – | – | – | – |
| CO[C@@H](C)C(=O)C1C(=O)c2ccc(S(=O)(=O)c3ccc4c(c3)C(=O)C(C(=O)[C@@H](C)OC)C4=O)cc2C1=O (stereo partly drawn) [Example 237, 2-[(2R)-2-methoxypropanoyl]-5-({2-[(2S)-2-methoxypropanoyl]-1,3-dioxo-2,3-dihydro-1H-inden-5-yl}sulfonyl)-2,3-dihydro-1H-indene-1,3-dione] | 30 | 37 | – | – | – | – |
| CC(=O)C1C(=O)c2ccc(Oc3ccc4c(c3)C(=O)C(C(C)=O)C4=O)cc2C1=O (stereo not drawn) [Example 9, 5-(2-acetyl-2,3-dihydro-1,3-dioxo-1h-inden-6-yloxy)-2-acetyl-2,3-dihydro-1,3-dioxo-1h-indene] | – | – | 52 | – | – | – |
| COCCC(=O)C1C(=O)c2ccc(S(=O)(=O)c3ccc4c(c3)C(=O)C(C(=O)CCOC)C4=O)cc2C1=O (stereo not drawn) [Example 177, 2-(3-methoxypropanoyl)-5-{[2-(3-methoxypropanoyl)-1,3-dioxo-2,3-dihydro-1H-inden-5-yl]sulfonyl}-2,3-dihydro-1H-indene-1,3-dione] | – | – | – | 0 | 17 | – |
| O=C(CCC(=O)C1C(=O)c2ccc(Oc3ccc4c(c3)C(=O)C(C(=O)CCC(=O)c3cccc(Cl)c3Cl)C4=O)cc2C1=O)c1cccc(Cl)c1Cl (stereo not drawn) [Example 258, 2-[4-(2,3-dichlorophenyl)-4-oxobutanoyl]-5-({2-[4-(2,3-dichlorophenyl)-4-oxobutanoyl]-1,3-dioxo-2,3-dihydro-1H-inden-5-yl}oxy)-2,3-dihydro-1H-indene-1,3-dione] | 18 | 33 | – | – | – | – |
| CC(C)(C)OC(=O)N[C@@H](Cc1ccccc1)C(=O)C1C(=O)c2ccc(C(=O)c3ccc4c(c3)C(=O)C(C(=O)[C@H](Cc3ccccc3)NC(=O)OC(C)(C)C)C4=O)cc2C1=O (stereo partly drawn) [Example 157, tert-butyl N-[(2S)-1-(5-{2-[(2S)-2-{[(tert-butoxy)carbonyl]amino}-3-phenylpropanoyl]-1,3-dioxo-2,3-dihydro-1H-indene-5-carbonyl}-1,3-dioxo-2,3-dihydro-1H-inden-2-yl)-1-oxo-3-phenylpropan-2-yl]carbamate] | – | – | 1.2 | 100 | 100 | – |
